Results taken from patent US5656637A, “Thiazole derivatives” (Yamanouchi Pharmaceutical Co., Ltd., priority 1990, dated 1997).
Where two headings read alike, the source gives them in different places.

How the values were obtained:
[1] = biological target: T1, 5-HT3 receptor (Rattus norvegicus, UniProt P35563); experiment: Effects of 5-HT3 receptor antagonists on the action of the compound of the present invention (decreases in heart rate and blood pressure); format: in vivo, rat (male Wistar); settings: GR38032F 30 μg/kg i.v. or ICS 205-930 0.1-1 μg/kg i.v., 10 minutes before the compound of the present invention
T1 construct: Male Wistar rats, 9 weeks old, were anesthetized with urethane; from tissue; host or cells: whole animal in vivo: anesthetized male Wistar rat (endogenous receptor; tissue not given)
T1 sequence (P35563 24-483): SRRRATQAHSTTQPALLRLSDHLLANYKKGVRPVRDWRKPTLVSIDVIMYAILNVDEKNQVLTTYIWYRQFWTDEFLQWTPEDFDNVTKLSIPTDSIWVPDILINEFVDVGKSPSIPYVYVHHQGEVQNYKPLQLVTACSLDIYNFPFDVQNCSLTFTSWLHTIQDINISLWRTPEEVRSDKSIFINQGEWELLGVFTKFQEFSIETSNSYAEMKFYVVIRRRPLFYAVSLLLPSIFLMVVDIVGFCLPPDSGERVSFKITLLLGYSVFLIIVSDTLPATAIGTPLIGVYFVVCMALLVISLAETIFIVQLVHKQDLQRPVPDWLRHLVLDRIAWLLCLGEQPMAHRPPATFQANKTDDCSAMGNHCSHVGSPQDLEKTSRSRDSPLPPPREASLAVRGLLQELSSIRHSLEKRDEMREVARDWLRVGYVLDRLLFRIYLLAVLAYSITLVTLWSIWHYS
Method: Male Wistar rats, 9 weeks old, were anesthetized with urethane 1 g/kg i.p. and the blood pressure and the heart rate were determined under artificial ventilation. […] In addition, it was confirmed by using 5-HT3 receptor antagonists that the changes caused by administration of the compound of the present invention were 5-HT3 receptor-mediated responses.
2) Effects of 5-HT3 receptor antagonists on the action of the compound of the present invention
GR38032F (30 μg/kg i.v.) or ICS 205-930 (0.1-1 μg/kg i.v.), 10 minutes before administration of the compound of the present invention.

[2] = biological target: T1, 5-HT3 receptor; experiment: 5-HT3 receptor stimulating action (Bezold-Jarisch reflex evoking action) in anesthetized rat, i.v.; format: in vivo, rat (male Wistar); settings: for ED50: iv, read-out: BJ reflex evoking activity ED50
Method: Male Wistar rats, 9 weeks old, were anesthetized with urethane 1 g/kg i.p. and the blood pressure and the heart rate were determined under artificial ventilation.
1) 5-HT3 receptor stimulating action (Bezold-Jarisch reflex evoking action)

Row | Compound | inhibition by 5-HT3 receptor antagonist of the decreases in heart rate and blood pressure induced by the compound of the present invention [1] | BJ reflex evoking activity Emax (maximal bradycardiac response) ([2]; i.v., anesthetized rat) | ED50 ([2]; rat) | Bezold-Jarisch reflex evoking activity, potency relative to serotonin ([2]; i.v., rat, versus serotonin) | ED50 ([2]; anesthetized rat)
1 | Cc1nccn1CC1CCc2c(c3ccccc3n2C)C1=O (racemic) [GR38032F] | competitively inhibited |  |  |  | 
2 | Cc1[nH]c2ccc(O)cc2c1CCN [2-Methylserotonin, 2-methylserotonin] |  | 259.0 beats/min | 0.0374 mg/kg |  | 
3 | COc1ccccc1Nc1nc2c(s1)CN(C)CC2.O=C(O)/C=C/C(=O)O [Example 1, 2-(o-methoxyanilino)-5-methyl-4,5,6,7-tetrahydrothiazolo[5,4-c]pyridine fumarate] |  | 205.8 beats/min |  | about 5 fold | 0.00301 mg/kg
4 | CN1C2CCC1CC(OC(=O)c1c[nH]c3ccccc13)C2 (stereo not shown) [ICS 205-930] | competitively inhibited |  |  |  | 
